Measured values reported in ChEMBL document CHEMBL3045038, “Structure-based predictive model for some benzimidazole inhibitors of hepatitis C virus NS5B polymerase” (Med Chem Res, 2013).

Molecular target: RNA-directed RNA polymerase (Hepacivirus hominis, UniProt O39930)
Assay: Inhibition of Hepatitis C virus genotype 1 NS5B polymerases lacking C-terminal 47 amino acid residues expressed in Escherichia coli after 60 min

| SMILES | IC50 [nM] |
| --- | --- |
| O=C(O)c1ccc2c(c1)nc(-c1ccc(OCc3cc(N4CCCC4=O)ccc3-c3ccc(Cl)cc3)cc1F)n2C1CCCCC1 | 12 |
| Cc1ncc(COc2ccc(-c3nc4cc(C(=O)O)ccc4n3C3CCCCC3)c(F)c2)c(-c2ccc(Cl)cc2)n1 | 188 |
| CC(=O)NC(=O)c1ccc(-c2ccc(Cl)cc2)c(COc2ccc(-c3nc4cc(C(=O)O)ccc4n3C3CCCCC3)c(F)c2)c1 | 14 |
| NC(=O)c1ccc(-c2ccc(Cl)cc2)c(COc2ccc(-c3nc4cc(C(=O)O)ccc4n3C3CCCCC3)c(F)c2)c1 | 13 |
